These results are taken from US10683269B2 (MISSION THERAPEUTICS LIMITED, priority 2016, dated 2020).

Molecules are shown by their SMILES. Where only a bound is given, the exact number is not on record here.

For this experiment, the target named is T1, USP7 (Homo sapiens, UniProt Q93009).
T1 construct: The USP7 construct was PCR amplified and cloned into a pFLAG-CMV-6a vector (Sigma-Aldrich) with an N-terminal FLAG tag; made in house; host or cells: HEK293T
T1 sequence (Q93009 whole entry): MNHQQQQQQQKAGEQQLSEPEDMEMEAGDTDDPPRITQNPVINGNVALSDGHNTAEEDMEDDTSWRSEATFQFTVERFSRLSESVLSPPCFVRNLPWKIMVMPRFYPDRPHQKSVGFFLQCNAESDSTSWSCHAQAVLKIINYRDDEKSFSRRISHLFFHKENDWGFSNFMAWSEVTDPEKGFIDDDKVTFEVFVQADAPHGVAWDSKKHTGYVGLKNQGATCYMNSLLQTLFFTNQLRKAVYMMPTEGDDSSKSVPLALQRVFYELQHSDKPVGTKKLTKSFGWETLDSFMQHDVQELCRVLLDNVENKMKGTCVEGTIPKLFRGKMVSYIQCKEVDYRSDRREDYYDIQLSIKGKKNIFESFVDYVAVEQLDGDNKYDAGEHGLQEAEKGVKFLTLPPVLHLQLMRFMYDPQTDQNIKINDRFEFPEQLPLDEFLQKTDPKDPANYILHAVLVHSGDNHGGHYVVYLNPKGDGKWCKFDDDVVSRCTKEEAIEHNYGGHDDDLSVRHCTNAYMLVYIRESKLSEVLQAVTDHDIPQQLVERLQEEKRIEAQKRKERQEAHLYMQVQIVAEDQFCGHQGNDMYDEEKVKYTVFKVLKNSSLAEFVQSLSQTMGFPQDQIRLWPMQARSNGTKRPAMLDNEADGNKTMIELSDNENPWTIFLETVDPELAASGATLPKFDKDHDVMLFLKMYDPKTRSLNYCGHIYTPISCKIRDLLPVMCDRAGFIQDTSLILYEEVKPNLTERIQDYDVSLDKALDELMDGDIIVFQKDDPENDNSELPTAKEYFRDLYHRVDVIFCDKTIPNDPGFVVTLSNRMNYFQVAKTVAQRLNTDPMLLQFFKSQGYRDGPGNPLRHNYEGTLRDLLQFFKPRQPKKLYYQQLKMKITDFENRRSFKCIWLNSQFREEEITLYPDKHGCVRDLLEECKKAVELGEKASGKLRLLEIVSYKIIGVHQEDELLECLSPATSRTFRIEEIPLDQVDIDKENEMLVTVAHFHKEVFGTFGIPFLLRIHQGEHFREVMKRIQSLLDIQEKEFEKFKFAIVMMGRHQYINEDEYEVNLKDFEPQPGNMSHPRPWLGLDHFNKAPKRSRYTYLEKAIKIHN
As to the kind of experiment: USP7 biochemical IC50 assay (fluorescence polarisation, TAMRA labelled peptide linked to ubiquitin via an iso-peptide bond). The settings on record: 30 min pre-incubation of enzyme and compound, read after 2 hr incubation at room temperature, read-out: IC50 range. Put shortly: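 Fluorescence polarisation at 540 nm excitation/590 nm emission, read immediately and after 2 hr at room temperature, following addition of 50 nM TAMRA-labelled iso-peptide ubiquitin substrate.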
Consider `N#CN1Cc2nc(NCCO)nc(-c3cccc(N4CCOC4=O)c3)c2C1` [Example 292, 2-((2-hydroxyethyl)amino)-4-(3-(2-oxooxazolidin-3-yl)phenyl)-5,7-dihydro-6H-pyrrolo[3,4-d]pyrimidine-6-carbonitrile], for which the IC50 – broadly, the concentration at which inhibition is half-maximal – was under 1000 nM. `CNC(=O)c1cc2c(c(-c3cc(OC)cnc3C#N)c1)CN(C#N)C2` [Example 293, 2-cyano-7-(2-cyano-5-methoxypyridin-3-yl)-N-methylisoindoline-5-carboxamide]: the IC50 was 1000 to 10000 nM. Consider `N#Cc1cc(-c2cn[nH]c2)ccc1-c1cccc2c1CN(C#N)C2` [Example 294, 4-(2-cyano-4-(1H-pyrazol-4-yl)phenyl)isoindoline-2-carbonitrile], for which the IC50 lay within 1000 to 10000 nM. The value for `CN1CCCC(CN(C)c2nc3c(c(N4CCc5cccnc5C4)n2)CN(C#N)C3)C1` (stereo not shown) [Example 295, 4-(5,8-dihydro-1,7-naphthyridin-7(6H)-yl)-2-(methyl((1-methylpiperidin-3-yl)methyl)amino)-5,7-dihydro-6H-pyrrolo[3,4-d]pyrimidine-6-carbonitrile] was 1000 to 10000 nM; that for `N#Cc1cc2c(c(-c3ccc(F)cc3C(N)=O)c1)CN(C#N)C2` [Example 296, 2-(2,6-dicyanoisoindolin-4-yl)-5-fluorobenzamide] was 1000 to 10000 nM; that for `N#Cc1cc(F)c(-c2cc(C#N)cc3c2CN(C#N)C3)c(C(N)=O)c1` [Example 297, 5-cyano-2-(2,6-dicyanoisoindolin-4-yl)-3-fluorobenzamide] was 1000 to 10000 nM. The figure for `N#Cc1ccc(N2CCOC2=O)cc1-c1cccc2c1CN(C#N)C2` [Example 298, 4-(2-cyano-5-(2-oxooxazolidin-3-yl)phenyl)isoindoline-2-carbonitrile] is 1000 to 10000 nM; for `N#Cc1ccc(N2CCCC2=O)cc1-c1cccc2c1CN(C#N)C2` [Example 299, 4-(2-cyano-5-(2-oxopyrrolidin-1-yl)phenyl)isoindoline-2-carbonitrile] it is 1000 to 10000 nM.

`N#CN1Cc2ncnc(-c3cccc(N4CCNC4=O)c3)c2C1` [Example 300, 4-(3-(2-oxoimidazolidin-1-yl)phenyl)-5,7-dihydro-6H-pyrrolo[3,4-c]pyrimidine-6-carbonitrile]: the IC50 was in the range of 1000 to 10000 nM. In the case of `N#Cc1cc(F)c(-c2cccc3c2CN(C#N)C3)c(C(N)=O)c1` [Example 301, 5-cyano-2-(2-cyanoisoindolin-4-yl)-3-fluorobenzamide], the half-maximal inhibitory concentration (IC50) is 1000 to 10000 nM.
